# Reference: PubChem BioAssay (NCI)
#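 Growth conditions: 96-well plates. Treatment: test compound, 48 hours, 5 concentrations. Analysis: linear interpolation between bracketing concentrations; unreached endpoints set to highest concentration. The concentration for full growth arrest is given as TGI.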
# Key:
# Assay in all cases: NCI tumour cell line growth inhibition, 48 h
# DMS 114 small cell lung = test system: DMS 114 small cell lung
# HOP-18 NSCLC = test system: HOP-18 NSCLC
# P388 leukemia = test system: P388 leukemia
# SN12K1 renal = test system: SN12K1 renal
# M19-MEL melanoma = test system: M19-MEL melanoma
# SNB-78 CNS = test system: SNB-78 CNS
# P388/ADR leukemia = test system: P388/ADR leukemia
# RXF-631 renal = test system: RXF-631 renal
SMILES,TGI (DMS 114 small cell lung),TGI (HOP-18 NSCLC),TGI (P388 leukemia),TGI (SN12K1 renal),TGI (M19-MEL melanoma),TGI (SNB-78 CNS),TGI (P388/ADR leukemia),TGI (RXF-631 renal)
Cn1c(-c2ccccc2)cc(-c2cccs2)c1-c1cccs1,> 100 µM,> 100 µM,> 100 µM,> 41.9 µM,> 100 µM,> 100 µM,> 100 µM,
COc1cc(C(C)O)c[n+](Cc2ccccc2)c1 (configuration not stated),> 100 µM,> 100 µM,,,> 100 µM,> 100 µM,,> 100 µM
Nc1[nH]c(=O)nc2c1cnn2C1CCCCO1 (configuration not stated),,> 100 µM,,,,> 100 µM,,> 100 µM
CC(N)Cc1ccc(Cl)c(Cl)c1 (configuration not stated),48.1 µM,> 77.1 µM,,,47 µM,> 100 µM,,
CN1C(c2ccccc2)CC(=O)C(N)C1c1ccccc1 (configuration not stated),,> 100 µM,,,55.5 µM,69.7 µM,,
